Tested on: glaucoma mice (high intraocular pressure, C57BL/6J)
Assay: Glaucoma mouse model induced by intraocular injection of polystyrene microparticles (RGC and axon damage)
Format: in vivo, C57BL/6J mice
Conditions: 2 μl once a week at 0.2 μg/ml intravitreal; observed after 8 weeks; compared to IgG injected mice / controls
Procedure: Glaucoma mouse model. Two glaucoma mice models were used in the following experiments. In the first model, high intraocular pressure was induced in adult C57BL/6J mice by injecting polystyrene microparticles. First, mice were anesthetized by intraperitoneal injection of a mixture of ketamine (120 mg/kg) and xylazine (12 mg/kg). Then, a small puncture in the center of the right cornea of the mouse was incised with a 30 G needle (BD, USA). Then, 3 to […] of polystyrene particles of 15 μm diameter (Invitrogen, Oregon, USA) were injected at a 5×10^6/ml concentration into the right anterior chamber of the eye by a glass micro-injector. Left eyes were used as controls, by injecting […] of PBS into the left anterior chamber in a similar manner
Treatment with immune checkpoint inhibitors. […]
Pathologic assessments. After mice were sacrificed, optic nerve and retinal patches were taken to assess optic nerve damage. The optic nerve was fixed overnight with Karnovsky solution. Transverse sections of the optic nerve were obtained 2 mm after the eyeball and observed by electron microscopy (EM410, Philips). For retinal patches the eyeball was fixed with 4% paraformaldehyde overnight. Retinal patches and frozen sections were taken. Retinal ganglion cells (RGCs) were labeled with beta 3 tubulin (Invitrogen) and recorded using a confocal laser microscope (Olympus FV1000). […]

Nc1ncnc2c1ncn2[C@@H]1O[C@H](CO)[C@@H](O)[C@H]1O [adenosine]
RGCs loss (beta 3 tubulin staining): decreased RGCs loss

Reference: patent US20220002411A1, “METHODS FOR TREATING IMMUNE RELATED OCULAR DISORDERS” (LEGEND MEDICAL-RIMONCI VISION TECHNOLOGY INCUBATION LIMITED, priority 2019, published 2022)
